# Values joined by “and” are separate entries in the source; they are usually repeats but may differ in a detail not shown here. Equal entries are not always repeated.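 48-hour exposure; five concentrations; linearly interpolated endpoints. Abbreviation: GI50, concentration required for 50% inhibition of growth. TGI denotes the concentration required for complete inhibition of growth.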
# Tests used:
# Assay in all cases: NCI anticancer screen, dose series, 48 h
# HOP-92 NSCLC = system: HOP-92 NSCLC
# T-47D breast = system: T-47D breast
# SF-295 CNS = system: SF-295 CNS
# A498 renal = system: A498 renal
# OVCAR-3 ovarian = system: OVCAR-3 ovarian
# CAKI-1 renal = system: CAKI-1 renal
# HT29 colon = system: HT29 colon
# SN12C renal = system: SN12C renal
# HCT-15 colon = system: HCT-15 colon
# OVCAR-8 ovarian = system: OVCAR-8 ovarian
# ACHN renal = system: ACHN renal
# DU-145 prostate = system: DU-145 prostate
# NCI-H522 lung = system: NCI-H522 lung
# SNB-19 CNS = system: SNB-19 CNS
# UACC-257 melanoma = system: UACC-257 melanoma
# TK-10 renal = system: TK-10 renal
# RPMI-8226 leukemia = system: RPMI-8226 leukemia
# HCC-2998 colon = system: HCC-2998 colon
# SF-268 CNS = system: SF-268 CNS
# 786-0 renal = system: 786-0 renal
# NCI-H226 lung = system: NCI-H226 lung
# SK-MEL-28 melanoma = system: SK-MEL-28 melanoma
# MCF7 breast = system: MCF7 breast
# K-562 leukemia = system: K-562 leukemia
# HOP-62 NSCLC = system: HOP-62 NSCLC
# LOX IMVI melanoma = system: LOX IMVI melanoma
# SW-620 colon = system: SW-620 colon
# EKVX NSCLC = system: EKVX NSCLC
# UO-31 renal = system: UO-31 renal
# OVCAR-4 ovarian = system: OVCAR-4 ovarian
# RXF 393 renal = system: RXF 393 renal
# M14 melanoma = system: M14 melanoma
# MDA-MB-231 breast = system: MDA-MB-231 breast
# PC-3 prostate = system: PC-3 prostate
# SK-MEL-5 melanoma = system: SK-MEL-5 melanoma
# SK-OV-3 ovarian = system: SK-OV-3 ovarian
# U251 CNS = system: U251 CNS
# A549 NSCLC = system: A549 NSCLC
# KM12 colon = system: KM12 colon
# HS 578T breast = system: HS 578T breast
# COLO 205 colon = system: COLO 205 colon
# HL-60(TB) leukemia = system: HL-60(TB) leukemia
# HCT-116 colon = system: HCT-116 colon
# MDA-MB-435 = system: MDA-MB-435
# OVCAR-5 ovarian = system: OVCAR-5 ovarian
# SF-539 CNS = system: SF-539 CNS
# SNB-75 CNS = system: SNB-75 CNS
# NCI-H23 lung = system: NCI-H23 lung
# IGROV1 ovarian = system: IGROV1 ovarian
# MOLT-4 leukemia = system: MOLT-4 leukemia
# SK-MEL-2 melanoma = system: SK-MEL-2 melanoma
# NCI/ADR-RES ovarian = system: NCI/ADR-RES ovarian
# UACC-62 melanoma = system: UACC-62 melanoma
# BT-549 breast = system: BT-549 breast
# CCRF-CEM leukemia = system: CCRF-CEM leukemia
# MALME-3M melanoma = system: MALME-3M melanoma
smiles,measurement,setting,value
O=C1CC(c2cccc(Cl)c2)Nc2ccc(N3CCCC3)cc21 (stereo unspecified),GI50,HOP-92 NSCLC,0.135 µM
same,TGI,HOP-92 NSCLC,> 100 µM
same,TGI,T-47D breast,> 100 µM
same,TGI,SF-295 CNS,> 100 µM
same,TGI,A498 renal,> 100 µM
same,TGI,OVCAR-3 ovarian,> 100 µM
same,TGI,CAKI-1 renal,> 100 µM
same,TGI,HT29 colon,0.331 µM
same,TGI,SN12C renal,0.0151 µM
same,GI50,HCT-15 colon,0.0329 µM
same,TGI,HCT-15 colon,> 100 µM
same,TGI,OVCAR-8 ovarian,3.85 µM
same,TGI,ACHN renal,> 100 µM
same,TGI,DU-145 prostate,2.25 µM and 13.6 µM
same,TGI,NCI-H522 lung,0.0677 µM
same,TGI,SNB-19 CNS,> 100 µM
same,TGI,UACC-257 melanoma,> 100 µM
same,GI50,TK-10 renal,> 100 µM
same,TGI,TK-10 renal,> 100 µM
same,TGI,RPMI-8226 leukemia,0.0171 µM
same,GI50,HCC-2998 colon,0.0148 µM
same,TGI,HCC-2998 colon,0.0611 µM
same,GI50,SF-268 CNS,0.0417 µM
same,TGI,SF-268 CNS,> 100 µM
same,TGI,786-0 renal,> 100 µM
same,TGI,NCI-H226 lung,0.606 µM and 0.338 µM
same,TGI,SK-MEL-28 melanoma,> 100 µM
same,GI50,MCF7 breast,0.0649 µM
same,TGI,MCF7 breast,> 100 µM
same,TGI,K-562 leukemia,0.017 µM
same,TGI,HOP-62 NSCLC,> 100 µM
same,TGI,LOX IMVI melanoma,> 100 µM
same,TGI,SW-620 colon,> 100 µM
same,TGI,EKVX NSCLC,> 100 µM
same,TGI,UO-31 renal,50.7 µM
same,GI50,OVCAR-4 ovarian,18.6 µM
same,TGI,OVCAR-4 ovarian,> 100 µM
same,TGI,RXF 393 renal,0.0845 µM
same,TGI,M14 melanoma,> 100 µM
same,GI50,MDA-MB-231 breast,0.433 µM
same,TGI,MDA-MB-231 breast,> 100 µM
same,TGI,PC-3 prostate,> 100 µM
same,TGI,SK-MEL-5 melanoma,0.087 µM
same,TGI,SK-OV-3 ovarian,> 100 µM
same,TGI,U251 CNS,> 100 µM
same,GI50,A549 NSCLC,0.0153 µM
same,TGI,A549 NSCLC,> 100 µM
same,GI50,KM12 colon,0.0153 µM
same,TGI,KM12 colon,0.117 µM
NS(=O)(=O)c1nnc(NC(=S)NC(=O)Nc2ccc(Cl)c(Cl)c2)s1,TGI,HOP-92 NSCLC,36.2 µM
same,TGI,HS 578T breast,67.2 µM
same,TGI,COLO 205 colon,39.1 µM
same,TGI,SF-295 CNS,62.1 µM
same,TGI,OVCAR-3 ovarian,62 µM
same,TGI,CAKI-1 renal,63.6 µM
same,TGI,HT29 colon,71.9 µM
same,TGI,SN12C renal,68.2 µM
same,TGI,HCT-15 colon,48.9 µM
same,TGI,OVCAR-8 ovarian,69.7 µM
same,TGI,HL-60(TB) leukemia,87.6 µM
same,TGI,DU-145 prostate,53.9 µM
same,TGI,NCI-H522 lung,31 µM
same,TGI,SNB-19 CNS,94.8 µM
same,TGI,UACC-257 melanoma,65.1 µM
same,TGI,TK-10 renal,> 100 µM
same,TGI,HCT-116 colon,44.3 µM
same,TGI,RPMI-8226 leukemia,> 100 µM
same,TGI,SF-268 CNS,> 100 µM
same,TGI,786-0 renal,> 100 µM
same,TGI,NCI-H226 lung,> 100 µM
same,TGI,MDA-MB-435,41.9 µM
same,TGI,OVCAR-5 ovarian,67.7 µM
same,TGI,SK-MEL-28 melanoma,> 100 µM
same,TGI,MCF7 breast,> 100 µM
same,TGI,SF-539 CNS,21.8 µM
same,TGI,SNB-75 CNS,50 µM
same,TGI,K-562 leukemia,> 100 µM
same,TGI,NCI-H23 lung,40.4 µM
same,TGI,HOP-62 NSCLC,63.7 µM
same,TGI,LOX IMVI melanoma,34 µM
same,TGI,SW-620 colon,65.5 µM
same,TGI,EKVX NSCLC,80.1 µM
same,TGI,IGROV1 ovarian,46.7 µM
same,TGI,MOLT-4 leukemia,> 100 µM
same,TGI,SK-MEL-2 melanoma,88 µM
same,TGI,UO-31 renal,48 µM
same,TGI,OVCAR-4 ovarian,55.2 µM
same,TGI,RXF 393 renal,42.3 µM
same,TGI,M14 melanoma,36.1 µM
same,TGI,MDA-MB-231 breast,> 100 µM
same,TGI,PC-3 prostate,> 100 µM
same,TGI,SK-MEL-5 melanoma,49 µM
same,TGI,NCI/ADR-RES ovarian,62.6 µM
same,TGI,UACC-62 melanoma,33.1 µM
same,TGI,SK-OV-3 ovarian,62.1 µM
same,TGI,U251 CNS,> 100 µM
same,TGI,A549 NSCLC,> 100 µM
same,TGI,BT-549 breast,50.2 µM
same,TGI,CCRF-CEM leukemia,> 100 µM
same,TGI,KM12 colon,39.9 µM
same,TGI,MALME-3M melanoma,59 µM

# Reference: PubChem BioAssay (NCI)
